From the supplement of paper PMC10307832 come the findings set out here.

The subject of one test is SK-LU-1. Kind of test: relative viability (nuclei count vs DMSO), 5 days (fraction); higher = more cells survive. To be noted: first compound 0.8 µM. An outline of the steps:
(§1)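 Lung cancer cell lines in 1536-well plates got either a single drug or a fixed anchor-drug dose together with five library-drug doses (not always all listed) in √10 steps, by pin tool, on the day after seeding. Nuclei were counted after 5 days, and relative viability is the treated-to-vehicle ratio of nuclei counts. Values are medians of duplicate plates.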
Molecule `CCCCCCCCCCCC1=C(O)C(=O)C=C(O)C1=O` [Embelin] + Nc1nc2[nH]cc(CCc3ccc(C(=O)N[C@@H](CCC(=O)O)C(=O)O)cc3)c2c(=O)[nH]1 [Pemetrexed] (partner 0.2 µM) had a relative viability of 1.13.

Staying with this test, now noted: first compound 2.53 µM.
`CCCCCCCCCCCC1=C(O)C(=O)C=C(O)C1=O` [Embelin] + N=C(N)NC(=N)NCCc1ccccc1 [Phenformin] (partner 250 µM) yielded a relative viability of 0.534.
`CCCCCCCCCCCC1=C(O)C(=O)C=C(O)C1=O` [Embelin] + CCNC(=O)c1noc(-c2cc(C(C)C)c(O)cc2O)c1-c1ccc(CN2CCOCC2)cc1 [Luminespib] (partner 0.01 µM) came in with a relative viability of 0.182.
In turn, `CCCCCCCCCCCC1=C(O)C(=O)C=C(O)C1=O` [Embelin] + Cc1nc(Nc2ncc(C(=O)Nc3c(C)cccc3Cl)s2)cc(N2CCN(CCO)CC2)n1 [Dasatinib] (partner 0.075 µM) displayed a relative viability of 0.199.
In turn, `CCCCCCCCCCCC1=C(O)C(=O)C=C(O)C1=O` [Embelin] + COc1cccc2cc(-c3nc([C@H]4CC[C@H](C(=O)O)CC4)n4ncnc(N)c34)[nH]c12 [OSI-027] (partner 0.5 µM) showed a relative viability of 0.383.
Same read-out and setting: the same measure for `CCCCCCCCCCCC1=C(O)C(=O)C=C(O)C1=O` [Embelin] + Nc1nc2[nH]cc(CCc3ccc(C(=O)N[C@@H](CCC(=O)O)C(=O)O)cc3)c2c(=O)[nH]1 [Pemetrexed] (partner 0.2 µM): 0.962.

Staying with this test, now noted: first compound 8 µM.
`CCCCCCCCCCCC1=C(O)C(=O)C=C(O)C1=O` [Embelin] + N=C(N)NC(=N)NCCc1ccccc1 [Phenformin] (partner 250 µM): the relative viability turned out to be 0.365.
In turn, `CCCCCCCCCCCC1=C(O)C(=O)C=C(O)C1=O` [Embelin] + CCNC(=O)c1noc(-c2cc(C(C)C)c(O)cc2O)c1-c1ccc(CN2CCOCC2)cc1 [Luminespib] (partner 0.01 µM) showed a relative viability of 0.204.
As for `CCCCCCCCCCCC1=C(O)C(=O)C=C(O)C1=O` [Embelin] + Cc1nc(Nc2ncc(C(=O)Nc3c(C)cccc3Cl)s2)cc(N2CCN(CCO)CC2)n1 [Dasatinib] (partner 0.075 µM), the relative viability turned out to be 0.138.
Take `CCCCCCCCCCCC1=C(O)C(=O)C=C(O)C1=O` [Embelin] + COc1cccc2cc(-c3nc([C@H]4CC[C@H](C(=O)O)CC4)n4ncnc(N)c34)[nH]c12 [OSI-027] (partner 0.5 µM): the relative viability was determined as 0.34.
`CCCCCCCCCCCC1=C(O)C(=O)C=C(O)C1=O` [Embelin] + Nc1nc2[nH]cc(CCc3ccc(C(=O)N[C@@H](CCC(=O)O)C(=O)O)cc3)c2c(=O)[nH]1 [Pemetrexed] (partner 0.2 µM) had a relative viability of 0.988.

The test system of another test is SW 1573. Described as above. The note with it: first compound 0.08 µM. An outline of the steps: as §1
In turn, `CCCCCCCCCCCC1=C(O)C(=O)C=C(O)C1=O` [Embelin] + N=C(N)NC(=N)NCCc1ccccc1 [Phenformin] (partner 250 µM) registered a relative viability of 0.433.
`CCCCCCCCCCCC1=C(O)C(=O)C=C(O)C1=O` [Embelin] + CCNC(=O)c1noc(-c2cc(C(C)C)c(O)cc2O)c1-c1ccc(CN2CCOCC2)cc1 [Luminespib] (partner 0.01 µM) yielded a relative viability of 0.256.
Still for that read-out and setting: for `CCCCCCCCCCCC1=C(O)C(=O)C=C(O)C1=O` [Embelin] + Cc1nc(Nc2ncc(C(=O)Nc3c(C)cccc3Cl)s2)cc(N2CCN(CCO)CC2)n1 [Dasatinib] (partner 0.075 µM) the value was 0.406; for `CCCCCCCCCCCC1=C(O)C(=O)C=C(O)C1=O` [Embelin] + COc1cccc2cc(-c3nc([C@H]4CC[C@H](C(=O)O)CC4)n4ncnc(N)c34)[nH]c12 [OSI-027] (partner 0.5 µM), 0.6.
In turn, `CCCCCCCCCCCC1=C(O)C(=O)C=C(O)C1=O` [Embelin] + Nc1nc2[nH]cc(CCc3ccc(C(=O)N[C@@H](CCC(=O)O)C(=O)O)cc3)c2c(=O)[nH]1 [Pemetrexed] (partner 0.2 µM) yielded a relative viability of 0.92.

Still in this test, the particulars now being: first compound 0.8 µM.
`CCCCCCCCCCCC1=C(O)C(=O)C=C(O)C1=O` [Embelin] + N=C(N)NC(=N)NCCc1ccccc1 [Phenformin] (partner 250 µM) gave a relative viability of 0.366.
For `CCCCCCCCCCCC1=C(O)C(=O)C=C(O)C1=O` [Embelin] + CCNC(=O)c1noc(-c2cc(C(C)C)c(O)cc2O)c1-c1ccc(CN2CCOCC2)cc1 [Luminespib] (partner 0.01 µM), the relative viability is 0.341.
The molecule `CCCCCCCCCCCC1=C(O)C(=O)C=C(O)C1=O` [Embelin] + Cc1nc(Nc2ncc(C(=O)Nc3c(C)cccc3Cl)s2)cc(N2CCN(CCO)CC2)n1 [Dasatinib] (partner 0.075 µM) returned a relative viability of 0.637.
Same read-out and setting: the same measure for `CCCCCCCCCCCC1=C(O)C(=O)C=C(O)C1=O` [Embelin] + COc1cccc2cc(-c3nc([C@H]4CC[C@H](C(=O)O)CC4)n4ncnc(N)c34)[nH]c12 [OSI-027] (partner 0.5 µM): 0.768.
Take `CCCCCCCCCCCC1=C(O)C(=O)C=C(O)C1=O` [Embelin] + Nc1nc2[nH]cc(CCc3ccc(C(=O)N[C@@H](CCC(=O)O)C(=O)O)cc3)c2c(=O)[nH]1 [Pemetrexed] (partner 0.2 µM): the relative viability is 0.844.

Still in this test, the particulars now being: first compound 2.53 µM.
`CCCCCCCCCCCC1=C(O)C(=O)C=C(O)C1=O` [Embelin] + N=C(N)NC(=N)NCCc1ccccc1 [Phenformin] (partner 250 µM) gave a relative viability of 0.479.
In turn, `CCCCCCCCCCCC1=C(O)C(=O)C=C(O)C1=O` [Embelin] + CCNC(=O)c1noc(-c2cc(C(C)C)c(O)cc2O)c1-c1ccc(CN2CCOCC2)cc1 [Luminespib] (partner 0.01 µM) registered a relative viability of 0.252.
Turning to `CCCCCCCCCCCC1=C(O)C(=O)C=C(O)C1=O` [Embelin] + Cc1nc(Nc2ncc(C(=O)Nc3c(C)cccc3Cl)s2)cc(N2CCN(CCO)CC2)n1 [Dasatinib] (partner 0.075 µM), the relative viability was 0.458.
On the same count and under the same terms, for `CCCCCCCCCCCC1=C(O)C(=O)C=C(O)C1=O` [Embelin] + COc1cccc2cc(-c3nc([C@H]4CC[C@H](C(=O)O)CC4)n4ncnc(N)c34)[nH]c12 [OSI-027] (partner 0.5 µM) the value was 0.896; for `CCCCCCCCCCCC1=C(O)C(=O)C=C(O)C1=O` [Embelin] + Nc1nc2[nH]cc(CCc3ccc(C(=O)N[C@@H](CCC(=O)O)C(=O)O)cc3)c2c(=O)[nH]1 [Pemetrexed] (partner 0.2 µM), 0.99.

The same test, now with this note: first compound 8 µM.
Turning to `CCCCCCCCCCCC1=C(O)C(=O)C=C(O)C1=O` [Embelin] + N=C(N)NC(=N)NCCc1ccccc1 [Phenformin] (partner 250 µM), the relative viability was 0.376.
Still for that read-out and setting: the same measure for `CCCCCCCCCCCC1=C(O)C(=O)C=C(O)C1=O` [Embelin] + CCNC(=O)c1noc(-c2cc(C(C)C)c(O)cc2O)c1-c1ccc(CN2CCOCC2)cc1 [Luminespib] (partner 0.01 µM): 0.216; for `CCCCCCCCCCCC1=C(O)C(=O)C=C(O)C1=O` [Embelin] + Cc1nc(Nc2ncc(C(=O)Nc3c(C)cccc3Cl)s2)cc(N2CCN(CCO)CC2)n1 [Dasatinib] (partner 0.075 µM): 0.725.
In the case of `CCCCCCCCCCCC1=C(O)C(=O)C=C(O)C1=O` [Embelin] + COc1cccc2cc(-c3nc([C@H]4CC[C@H](C(=O)O)CC4)n4ncnc(N)c34)[nH]c12 [OSI-027] (partner 0.5 µM), the relative viability was determined as 0.573.
Consider `CCCCCCCCCCCC1=C(O)C(=O)C=C(O)C1=O` [Embelin] + Nc1nc2[nH]cc(CCc3ccc(C(=O)N[C@@H](CCC(=O)O)C(=O)O)cc3)c2c(=O)[nH]1 [Pemetrexed] (partner 0.2 µM), for which the relative viability turned out to be 0.931.
